These are literature values, as cited in patent US20030215513A1, “Method for releasing nanosized particles of an active substance from a diffusion-controlled pharmaceutical composition for oral use” (priority 2002, published 2003).

Where two headings read alike, the source gives them in different places.

As to `OC[C@@H](O)[C@@H](O)[C@H](O)[C@H](O)CO` [mannitol], for the setting “at 37° C.”, the saturated concentration result is on record as “about 17%”.
Turning to `OC[C@@H](O)[C@@H](O)[C@H](O)[C@@H](O)CO` [sorbitol], the saturated concentration entry (at 25° C.) is “about 66%”.
